From US6387955B1, “Enhanced anti-angiogenic activity of permanently charged derivatives of steroid hormones” (Pharmos Corporation, priority 1997, dated 2002) come the findings set out here.

Structures are written as SMILES.

Data set [1] has as its system MCF-7 tumors. Put plainly: Tumor necrosis in MCF-7 tumors by T2-weighted MRI. Format: in vivo, nude mice. On the procedure:
(§1) Female CD1-nu/nu athymic mice (6 weeks old) were obtained from the Weizmann Institute Department of Animal Services. MCF-7 cells, serially passed as described above, were detached from the culturing flasks with 0.03% EDTA in phosphate buffered saline (PBS) and washed several times in normal saline. Cells (10^7/innoculum) were then injected into the ventral fat pad at the level of the breast. Coincident with cell introduction, a slow-release pellet of estradiol (0.72 mg/pellet, 45-day release profile; Innovative Research, Sarasota, Fla.) was implanted subcutaneously in the flank of the animal. Mice were anesthetized with ketamine/Rompun (i.p.) for the surgical procedures. […] At this point, animals were randomized into four study groups. In the first, the estrogen pellet was removed and replaced with a slow-release TMI-laden pellet (6.3 mg, 45-day release) (n=5). In the second group, the estrogen pellet was removed and replaced with a tamoxifen pellet (n=7). The third group was treated with a blank (placebo) pellet (n=5), while the fourth group was reimplanted with an estradiol pellet (n=4). TMI and placebo-treated animals were imaged (under ketamine/Rompun anesthesia) either immediately before pellet exchange (day 0) or at day 3, 6, 12 and 25 after pellet exchange.
(§2) MRI images were recorded with a Bruker 4.7 (tesla)/30 Biospec spectrometer (Bruker Medizintechnik, Rheinstetten, Germany). 1H Spin-echo images were recorded at 200.12 MHz using a custom-made 4.5 cm rf coil with an image data matrix of 256×128 pixels. Pilot scans of the tumors were completed using a fast transverse multi-slice spin-echo sequence (giving T1-weighted spectra; inter-echo time (TE)=16 msec, recovery time (TR)=500 msec) followed by T2-weighted sequences in which axial slices perpendicular to the spine (i.e., a coronal orientation) were recorded. In the latter case, spin-echo images were obtained using a 4 cm field of view, 1 mm slice thickness, 1.2 mm slice-to-slice distance and a four-sequence average. The TE and TR were optimized to provide the best image contrast generating values of 80 and 3200 msec, respectively. This gave a total imaging time of approximately 30 min. Under the conditions reported, the in-plane resolution was 155×310 μm. Tumor size was calculated using a slice-to-slice reconstruction in which the slice surface area was obtained from histograms provided by the resident Bruker software package using the following relationship:
where XSA is the cross-sectional area of an internal slice, ES is the cross-sectional area of an edge slice, l is the slice thickness and ssd is the distance from the middle of one slice to the middle of the next. For image analysis, the average pixel intensity of viable portions of MCF-7 tumors was determined from a central tumor slice using histograms generated by the dedicated Bruker software package. […] Fibrosis was defined as those areas manifesting a decrease in pixel intensity of […].
In vivo tumor histology was assessed for TMI and placebo-treated tumors using T2-weighted MR images. […] At this time, the area of necrosis was two-fold higher than that observed on day 0 (increasing from an average of 20% to approximately 40%).

The next data set in a line: Tolerability in mice. Format: in vivo. The settings on record: mice.
A further data set concerns Bovine endothelial cells. Description: Endothelial cell tube formation on Matrigel. Format: cell-based. The following applies: 10 μM, image analysis. On the procedure:
Bovine endothelial cells were harvested by brief exposure to 1 mM EDTA, washed with DMEM containing 0.1% bovine serum albumin and added to a layer of Matrigel (basement membrane components) in a 24 well plate to a density of 50,000 cells per well. After attachment, culture media (1.0 ml) was added and the plates incubated as a monolayer culture in the presence or absence of various concentrations of TMI. The plates were analyzed hourly using Hoffman optics for endothelial tube formation and growth. Photomicrographs were taken for estimation of relative inhibitory action.
The action of TMI on angiogenesis was evaluated using in vitro techniques. Bovine endothelial cells seeded on matrigel (a basement membrane preparation made up of laminin, collagen type IV, heparin sulfate proteoglycan and entactin) will form tubes which elongate as a function of time. […] A dose of 10 μM of TMI decreased tube area by more than 70%, as measured by image analysis.

The test system of data set [2] is MCF-7 tumors. Put plainly: Growth of MCF-7 tumors implanted in ventral fat pad of nude mice, tumor size by MRI. Format: in vivo. The following applies: TMI pellet 6.3 mg 45-day release, 25 day time course. On the procedure:
as §1
as §2, with “Under the conditions reported, the in-plane resolution was 155×310 μm.” left out, “relationship: […]” for “relationship:”
where XSA is the cross-sectional area of an internal slice, ES is the cross-sectional area of an edge slice, l is the slice thickness and ssd is the distance from the middle of one slice to the middle of the next. For image analysis, the average pixel intensity of viable portions of MCF-7 tumors was determined from a central tumor slice using histograms generated by the dedicated Bruker software package. […]

`CC/C(=C(\c1ccccc1)c1ccc(OCC[N+](C)(C)C)cc1)c1ccccc1` [TMI, Tamoxifen methiodide]: the “total area of necrosis, day three average” value with MCF-7 tumors [1] (day 3 after pellet exchange) was 72%. Besides, in the data set with MCF-7 tumors [1] (preliminary comparison of TMI and tamoxifen), the “maximum extent of necrosis” value is 72%. In addition, in the data set with MCF-7 tumors [1] (sampling day after pellet exchange), the “onset of tumor necrosis” value stood at 3 days. The tolerability result in the data set “Tolerability in mice” was “well tolerated”. For the same molecule, in the data set with Bovine endothelial cells, the “decrease of tube area” value is given as “more than 70%”. Also, in the data set with MCF-7 tumors [2], the “tumor regression (average shrinking)” value came out at 20%.
